The target of data set [1] is T1, apo-LmHemQ (HemQ from Listeria monocytogenes) (Listeria monocytogenes serovar 1/2a, UniProt Q8Y5F1).
T1 construct: made in house; host or cells: Escherichia coli
Format: binding. The conditions noted are these: pH 7. On the procedure: (§1) Time-resolved binding of coproheme to apo-HemQ was monitored using a stopped-flow apparatus equipped with a diode array detector (model SX-18MV, Applied Photophysics), in the conventional mode. […] The fastest mixing time was 1 ms. […]. Experiments were conducted in 50 mM phosphate buffer (pH 7.0). Reactions were simulated, and rates were estimated using Pro-Kineticists software (Applied Photophysics). The apparent second-order rate constants, kon, were obtained from the slope of a plot of kobs versus coproheme concentration.

The target in data set [2] is T2, apo-SaHemQ (HemQ from Staphylococcus aureus) (Staphylococcus aureus, UniProt A6QEP0).
T2 construct: poly-His (C); made in house; host or cells: Escherichia coli BL21(DE3)pLysS
T2 sequence (A6QEP0 whole entry): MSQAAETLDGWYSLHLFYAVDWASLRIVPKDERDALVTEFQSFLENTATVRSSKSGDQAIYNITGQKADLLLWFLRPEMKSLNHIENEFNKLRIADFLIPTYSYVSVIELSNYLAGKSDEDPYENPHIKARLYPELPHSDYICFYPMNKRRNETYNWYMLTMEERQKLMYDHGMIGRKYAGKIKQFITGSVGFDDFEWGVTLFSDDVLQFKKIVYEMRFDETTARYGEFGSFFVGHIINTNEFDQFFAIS
Format: binding. The conditions noted are these: pH 7. On the procedure: as §1

For another data set, the system named is SaHemQ. Format: binding, Staphylococcus aureus.
The test system of data set [3] is apo-SaHemQ and apo-LmHemQ. The format is binding, S. aureus and L. monocytogenes. On the procedure:
as §1

The target in another data set is apo-myoglobin. As to conditions: cited from earlier work.

Data on two compounds can be found in PMC5041162, “Chemistry and Molecular Dynamics Simulations of Heme b-HemQ and Coproheme-HemQ” (Biochemistry, 2016).

T1 sequence (Q8Y5F1 whole entry): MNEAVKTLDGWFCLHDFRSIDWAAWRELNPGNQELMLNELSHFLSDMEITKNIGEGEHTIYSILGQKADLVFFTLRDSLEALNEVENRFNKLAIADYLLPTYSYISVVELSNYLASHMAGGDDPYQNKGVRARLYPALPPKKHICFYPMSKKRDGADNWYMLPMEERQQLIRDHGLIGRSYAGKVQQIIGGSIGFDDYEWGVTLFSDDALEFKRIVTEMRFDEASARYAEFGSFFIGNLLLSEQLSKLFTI

`CC1=C(CCC(=O)O)c2cc3[n-]c(cc4nc(cc5[n-]c(cc1n2)c(CCC(=O)O)c5C)C(C)=C4CCC(=O)O)c(CCC(=O)O)c3C.[Fe]` [coproheme, iron coproporphyrin III]: in data set [1], the “kon, binding of coproheme to apo-HemQ, first (fast) phase” value is ~1.5 × 10^8 M^–1 s^–1 and the “kon, binding of coproheme to apo-HemQ, second (slow) phase” value is 2.2 × 10^6 M^–1 s^–1. In data set [2], the “kon, binding of coproheme to apo-HemQ, first (fast) phase” value was ~2.0 × 10^8 M^–1 s^–1 and the “kon, binding of coproheme to apo-HemQ, second (slow) phase” value was 3.7 × 10^6 M^–1 s^–1. For the same compound, the “increase of Tm when coproheme binds” value in the data set on SaHemQ came out at 14 °C. For the same compound, in data set [3], the “rate of coproheme binding, fast phase” value is listed as 1.5–2 × 10^8 M^–1 s^–1.

Consider `C=CC1=C(C)c2cc3[n-]c(cc4nc(cc5[n-]c(cc1n2)c(C)c5CCC(=O)O)C(CCC(=O)O)=C4C)c(C)c3C=C.[Fe+3]` [hemin], for which the “KD of the prosthetic group to apo-myoglobin” value on apo-myoglobin is listed as “low nanomolar range”.
